According to patent publication US12624026B2, “Inhibitors of SARM1” (Disarm Therapeutics, Inc., priority 2018, dated 2026):

These compounds were tested against T1, SARM1 SAM-TIR (Homo sapiens, UniProt Q6SZW1) (assay: biochemical). Conditions: SAM-TIR lysate 5 μg/mL, 2 h pre-incubation, 5 μM NAD+, RapidFire MS of NAD+ and ADPR; read-out: SARM1 IC50.
T1 construct: a fragment of the SARM1 molecule encompassing the SAM and TIR domains; made in house; host or cells: NRK1-HEK293T cells, transiently transfected; the cleared, unpurified lysate was used as the enzyme
T1 sequence (Q6SZW1 409-724 limits assumed): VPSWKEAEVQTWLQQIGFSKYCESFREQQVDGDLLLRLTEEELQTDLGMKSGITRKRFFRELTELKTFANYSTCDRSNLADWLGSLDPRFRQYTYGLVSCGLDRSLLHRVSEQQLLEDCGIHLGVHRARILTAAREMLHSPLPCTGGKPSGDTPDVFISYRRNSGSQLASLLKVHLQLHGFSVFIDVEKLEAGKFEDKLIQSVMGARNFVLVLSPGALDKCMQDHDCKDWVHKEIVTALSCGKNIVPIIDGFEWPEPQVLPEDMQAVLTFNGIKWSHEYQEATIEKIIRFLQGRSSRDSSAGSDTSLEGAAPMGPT

Row | Compound | IC50
1 | N#Cc1c(O)nsc1Nc1ccccc1C(F)(F)F [Example 6] | < 1 µM
2 | Cc1ccccc1Nc1snc(O)c1C#N [Example 7] | 1 to 5 µM
3 | N#Cc1c(O)nsc1Nc1cccc(C(F)(F)F)c1 [Example 12] | 1 to 5 µM
4 | N#Cc1c(O)nsc1Nc1cccc2ncccc12 [Example 27] | 1 to 5 µM
5 | Cn1sc(Nc2ccccc2C(F)(F)F)c(C#N)c1=O [Example 31] | < 1 µM
6 | Cn1sc(Nc2c(Cl)cccc2Cl)c(C(=O)N2CCOCC2)c1=O [Example 143] | 1 to 5 µM
7 | N#Cc1c(Nc2ccc(N3CC[C@@H](N)C3)nc2)s[nH]c1=O [Example 144] | 1 to 5 µM
8 | CN(C)C(=N)c1c(Nc2c(Cl)ccc3ncccc23)s[nH]c1=O [Example 145] | 1 to 5 µM
9 | CN(C)C(=N)c1c(Nc2ccccc2C2CC2)s[nH]c1=O [Example 146] | 1 to 5 µM
10 | C[C@@H](c1ccccc1)n1sc(Nc2ccccc2C(F)(F)F)c(C(=O)N2CCOCC2)c1=O [Example 147] | 1 to 5 µM
11 | O=C(c1c(Nc2ccccc2C(F)(F)F)s[nH]c1=O)N1CCOCC1 [Example 148] | 1 to 5 µM
12 | O=C(c1c(Nc2c(F)cccc2Cl)s[nH]c1=O)N1CCOCC1 [Example 149] | 1 to 5 µM
13 | N#Cc1c(Nc2ccc(N3CC[C@@H](O)C3)nc2)s[nH]c1=O [Example 150] | 1 to 5 µM
14 | N#Cc1c(Nc2ccc3c(c2)ncn3[C@H]2CCNC2)s[nH]c1=O [Example 151] | 1 to 5 µM
15 | COCCn1sc(Nc2ccccc2C(F)(F)F)c(-c2ncon2)c1=O [Example 152] | > 5 µM
16 | O=C(c1c(Nc2c(Cl)cccc2Cl)s[nH]c1=O)N1CCOCC1 [Example 153] | 1 to 5 µM
17 | COc1cccc(C#N)c1Nc1sn(CC(C)(C)O)c(=O)c1C(=O)N1CCOCC1 [Example 154] | > 5 µM
18 | N#Cc1c(Nc2cccc(C3CCCNC3)c2C(F)(F)F)s[nH]c1=O (centres unmarked) [Example 157] | > 5 µM
19 | COc1cccc(C(F)(F)F)c1Nc1sn(C)c(=O)c1C(=O)N1CCOCC1 [Example 158] | > 5 µM
20 | COc1cccc(C(F)(F)F)c1Nc1s[nH]c(=O)c1C(=O)N1CCOCC1 [Example 159] | > 5 µM

Row | Compound | IC50
21 | COCCn1sc(N(C)c2ccccc2C(F)(F)F)c(-c2ncon2)c1=O [Example 160] | > 5 µM
22 | N#Cc1c(Nc2cccc(-c3ccc4cc[nH]c4c3)c2C(F)(F)F)s[nH]c1=O [Example 161] | > 5 µM
23 | N#Cc1c(N2CCc3ccccc32)s[nH]c1=O [Example 162] | > 5 µM
24 | N#Cc1c(Nc2cccc(C3CCNCC3)c2C(F)(F)F)s[nH]c1=O [Example 163] | > 5 µM
25 | C[C@@H](c1ccccc1)n1sc(Nc2c(Cl)cccc2Cl)c(C(=N)N2CCOCC2)c1=O [Example 165] | > 5 µM
26 | O=c1cc(Nc2ccccc2C(F)(F)F)s[nH]1 [Example 166] | 1 to 5 µM
27 | C[C@@H](c1ccccc1)n1sc(Nc2c(Cl)cccc2Cl)c(C(=O)N2CCOCC2)c1=O [Example 167] | 1 to 5 µM
28 | O=c1[nH]sc(Nc2ccccc2C(F)(F)F)c1-c1ccccc1 [Example 168] | > 5 µM
29 | Cc1c(Nc2ccccc2C(F)(F)F)s[nH]c1=O [Example 169] | > 5 µM
30 | N#Cc1c(NC2CCCCC2)s[nH]c1=O [Example 170] | > 5 µM
31 | CN(C(=O)c1c(Nc2ccccc2C(F)(F)F)s[nH]c1=O)c1ccccc1 [Example 172] | 1 to 5 µM
32 | N#Cc1c(Nc2ccc3nc(C(F)(F)F)[nH]c(=O)c3c2)s[nH]c1=O [Example 173] | > 5 µM
33 | O=C(c1c(Nc2ccccc2C(F)(F)F)s[nH]c1=O)N1CC2CCC1CC2 [Example 174] | > 5 µM
34 | N#Cc1c(Nc2ccccc2C(F)(F)F)sn(CCCCCNC(=O)CCCC[C@@H]2SC[C@@H]3NC(=O)N[C@@H]32)c1=O [Example 175] | < 1 µM
35 | Cc1cc(C)n2c1CC1C=CC(CCC(=O)NCCCCCn3sc(Nc4ccccc4C(F)(F)F)c(C#N)c3=O)=[N+]1[B-]2(F)F (centres unmarked) [Example 176] | 1 to 5 µM
36 | Cc1cc(C)n2c1C=C1C=CC(CCC(=O)NCCOCCOCCn3sc(Nc4ccccc4C(F)(F)F)c(C#N)c3=O)=[N+]1[B-]2(F)F [Example 177] | < 1 µM
37 | N#Cc1c(Nc2ccccc2C(F)(F)F)sn(CCOCCOCCNC(=O)CCCC[C@@H]2SC[C@@H]3NC(=O)N[C@@H]32)c1=O [Example 178] | < 1 µM
38 | C#CCOCCOCCn1sc(Nc2ccccc2C(F)(F)F)c(C#N)c1=O [Example 179] | < 1 µM
39 | C#CCOCCOCCOCCn1sc(Nc2ccccc2C(F)(F)F)c(C#N)c1=O [Example 180] | < 1 µM

Each compound was assayed on mouse dorsal root ganglion (DRG) drop culture (assay: Axon degeneration assay in mouse DRG drop culture). Conditions: protection of axon fragmentation, axonal transection or chemotoxic stimuli.
Assay type: cell-based
Experimental: This Example illustrates an in vitro axon degeneration assay used to characterize compounds of Formula I or Formula II. This assay is used to test the efficacy of the compounds of Formula I or Formula II to prevent axonal degeneration in a mouse dorsal root ganglion (DRG) drop culture.
Mouse DRG Drop culture: Mouse dorsal root ganglion neurons (DRGs) were dissected out of E12.5 CD1 mice (50 ganglion per embryo) and incubated with 0.5% Trypsin solution containing 0.02% EDTA (Gibco) at 37° C. for 15 min. The cells were then triturated by gentle pipetting and washed 3 times with DRG growth medium (Neurobasal medium (Gibco) containing 2% B27 (Invitrogen), 100 ng/ml 2.5S NGF (Harland Bioproducts), […] 5-fluoro-2′deoxyuridine (Sigma), penicillin, and streptomycin). Cells were suspended in the DRG growth medium. DRG drop cultures were created by spotting 5000 cells/well into the center of each well of a 96-well tissue culture plate coated with poly-D-Lysine (0.1 mg/ml; Sigma) and laminin ([…]; Invitrogen). Cells were allowed to adhere to the plates in a humidified tissue culture incubator (5% CO2) for 15 min and then DRG growth medium was gently added ([…]).
Axon degeneration assay: Axonal degeneration was stimulated either by manual axonal transection using a scalpel blade, or chemotoxic stimuli. After an appropriate experimental time period, the DRG cultures were fixed in 1% PFA plus sucrose and kept in the fridge prior to imaging. Bright-field images of DRG axons and cell bodies were collected using the 20× water immersion lens of a Phenix automated confocal microscope (PerkinElmer) and quantitation of axonal performed using in-house developed scripts (Acapella, PerkinElmer).

Row | Compound | IC50
40 | N#Cc1c(O)nsc1Nc1ccccc1C(F)(F)F [Example 6] | 10 to 30 µM
41 | Cc1ccccc1Nc1snc(O)c1C#N [Example 7] | 10 to 30 µM
42 | N#Cc1c(O)nsc1Nc1cccc(C(F)(F)F)c1 [Example 12] | < 10 µM
43 | N#Cc1c(O)nsc1Nc1cccc2ncccc12 [Example 27] | < 10 µM
44 | Cn1sc(Nc2ccccc2C(F)(F)F)c(C#N)c1=O [Example 31] | 10 to 30 µM
